biological target: T1, B2 bradykinin receptor (Rattus norvegicus, UniProt P25023); test: Inhibition of binding of [3H]BK to rat bradykinin B2 receptor expressed in NG108-15 neuroblastoma-glioma hybrid cell membranes; parameters: species or system Membrane
T1 sequence (P25023 whole entry): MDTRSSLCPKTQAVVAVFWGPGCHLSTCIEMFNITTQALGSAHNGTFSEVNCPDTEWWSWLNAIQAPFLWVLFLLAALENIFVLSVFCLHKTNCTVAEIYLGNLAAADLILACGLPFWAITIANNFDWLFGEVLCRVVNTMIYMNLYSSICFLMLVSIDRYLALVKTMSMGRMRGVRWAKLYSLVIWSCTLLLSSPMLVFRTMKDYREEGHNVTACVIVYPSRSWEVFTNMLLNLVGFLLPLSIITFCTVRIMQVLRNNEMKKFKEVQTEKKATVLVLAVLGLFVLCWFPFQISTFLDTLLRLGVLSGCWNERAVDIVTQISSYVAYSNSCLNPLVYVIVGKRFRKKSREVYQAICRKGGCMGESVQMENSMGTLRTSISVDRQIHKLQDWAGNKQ

Row | SMILES | Ki
1 | O=[N+]([O-])c1cccc(N/N=C(\S)NCc2ccccc2)c1 | > 100000 nM
2 | S=C(NCc1ccccc1)NNc1ccccc1 | 100000 nM
3 | O=C(O)c1ccccc1NNC(=S)NCc1ccccc1 | > 100000 nM
4 | O=[N+]([O-])c1cc(S(=O)(=O)NCc2ccccc2)ccc1NNC(=S)NCc1ccccc1 | 310 nM
5 | O=C(NCc1ccccc1)NCc1ccccc1[N+](=O)[O-] | > 100000 nM
6 | O=[N+]([O-])c1ccccc1N/N=C(/S)NCc1ccccc1 | 1600 nM
7 | O=[N+]([O-])c1cc(S(=O)(=O)NCc2ccccc2)ccc1NC/C(S)=N\Cc1ccccc1 | > 100000 nM
8 | O=[N+]([O-])c1ccccc1CNC(=S)NCc1ccccc1 | 7100 nM
9 | O=[N+]([O-])c1cc(S(=O)(=O)NCc2ccccc2)ccc1N/N=C(\S)CCc1ccccc1 | > 100000 nM
10 | O=[N+]([O-])c1cc(S(=O)(=O)NCc2ccco2)ccc1NNC(=S)NCc1ccco1 | 540 nM

The next compounds have a lower Ki than those just listed; values first:

Row | Ki | SMILES
11 | 1.8 nM | NC(=O)c1ccc(N/N=C(/S)NC(c2ccccc2)c2ccccc2)c([N+](=O)[O-])c1
12 | 38 nM | O=[N+]([O-])c1ccccc1N/N=C(/S)NC(c1ccccc1)c1ccccc1
13 | 0.6 nM | CN(C)CCN(C)CCNC(=O)[C@H]1CCCN1S(=O)(=O)c1ccc(NNC(=S)NC(c2ccccc2)c2ccccc2)c([N+](=O)[O-])c1
14 | 0.5 nM | CN(C)CCN(C)CCNC(=O)[C@@H]1CCCN1S(=O)(=O)c1ccc(NNC(=S)NC(c2ccccc2)c2ccccc2)c([N+](=O)[O-])c1
15 | 4 nM | NS(=O)(=O)c1ccc(N/N=C(/S)NC(c2ccccc2)c2ccccc2)c([N+](=O)[O-])c1
16 | 148 nM | CN(C)CCCN(CCCN(C)C)S(=O)(=O)c1ccc(NNC(=S)NC(c2ccccc2)c2ccccc2)c([N+](=O)[O-])c1

Reference: ChEMBL document CHEMBL1133714, “1-(2-Nitrophenyl)thiosemicarbazides: a novel class of potent, orally active non-peptide antagonist for the bradykinin B(2) receptor” (J Med Chem, 2000)
